Test results: patent US20240240145A1, “METHODS AND COMPOSITIONS FOR GENERATING MITOCHONDRIA REPLACED LYMPHOID CELLS” (Imel Biotherapeutics, Inc., priority 2021, published 2024)

What was measured:
mouse NZB T cells = experiment: TaqMan SNP assay of replacement of NZB T cell mtDNA with B6 MEF mtDNA after culture with rapamycin; type: cell-based; details: 40 μg B6 MEF mitochondria
Experimental: Isolation and Cell Culture of Primary Mouse T lymphocytes: All the animal experiments were performed according to the animal experiment guidelines issued by the Animal Care and Use Committee of our institution (M2019-536). For mouse T lymphocytes isolation, spleens were removed from mouse after anesthetized and sacrificed. Spleens were washed with PBS (FUJIFILM Wako Pure Chemical Corp.), then mashed and filtrated to extract splenocytes. Mouse T cells were highly purified from splenocytes by immunomagnetic negative selection using EasySep mouse T cell isolation kit (Veritas, Santa Clara, CA, USA) according to the manufacturer's recommendations. Isolated mouse T cells were cultured in Advanced RPMI1640 medium supplemented with 10% FBS, 1% penicillin/streptomycin, 20 mM L-glutamine (Thermo Fisher Scientific incorporated), […] recombinant human IL-2 (PeproTech, Rocky Hill, NJ, USA), which is activated with Dynabeads mouse T-activator CD3/CD28 (Thermo Fisher Scientific incorporated). Cells were incubated at 37 °C in a humidified 5% CO2 incubator.
Mitochondrial Isolation and Transfer to Mouse T cells: Mitochondria were isolated from B6 murine embryonic fibroblasts (MEF). […] The amounts of isolated mitochondria were expressed as protein concentration using a Bio-Rad protein assay kit (Bio-Rad Laboratories, incorporated, Richmond, CA, USA). […]

human GJ T cells = experiment: TaqMan SNP assay of transfer of EPC100 mitochondria to human GJ T cells cultured with rapamycin; type: cell-based; details: for portion of donor mtDNA detected in T cells: after 7 days, EPC100 donor mitochondria
Experimental: Isolation and Cell Culture of Human T cells: Venous heparinized blood was taken according to the standard procedures from the median cubital vein. Human peripheral blood mononuclear cells (PBMC) were isolated from human peripheral blood using density-gradient centrifugation with 1.077 g/ml percoll (GE Healthcare Life Sciences, Buckinghamshire, England). Cells were cultured in TexMACS medium (Miltenyi Biotec) supplemented with 10% fetal bovine serum, 1% penicillin/streptomycin (Thermo Fisher Scientific incorporated), […] of IL-7, and […] of IL-15 on cell culture plates coated with anti-CD3 antibody and anti-CD28 antibody (Miltenyi Biotec). Cells were incubated at 37° C. in a humidified 5% CO2 incubator.
Mitochondrial Isolation and Transfer to Human T cells: The immortalized human uterine endometrial gland-derived mesenchymal cell line, EPC100 (Japanese Collection of Research Bioresources Cell Bank, JCRB1538) was used as an exemplary donor of exogenous mitochondria for mitochondrial transfer to human primary T cells by using the same protocol as that of murine protocol.
TaqMan Single Nucleotide Polymorphism (SNP) Assay: Based upon the differences in the mitochondrial HVR1 sequences of human GJ T cells and EPC100 cells, and the mitochondrial ND1 of B6 mouse and NZB mouse, the probes and primer set forth in Tables 1 and 2 were designed, which provide sensitivity and specificity in the TaqMan SNP assay. To determine mutation ratios, we designed wild-type and mutant allele-specific TaqMan probes for the TaqMan SNP assay. The extracted DNA (1 ng) was used for quantitative PCR with the TaqMan Universal PCR Master Mix kit (Thermo Fisher Scientific Incorporated) on a CFX connect real-time system (Bio-Rad Laboratories, Incorporated) under the following conditions: 40 cycles of PCR (95° ° C. for 15 see and 60° ° C. for 1 min) after initial denaturation (95° ° C. for 10 min). […] The mtDNA copy number was estimated from the content ratio of 12S rRNA on mtDNA and ACTB (or Actb) on nuclear DNA by delta cycle threshold-based relative quantification. […]

SMILES: CO[C@H]1C[C@@H]2CC[C@@H](C)[C@@](O)(O2)C(=O)C(=O)N2CCCC[C@H]2C(=O)O[C@H]([C@H](C)C[C@@H]2CC[C@@H](O)[C@H](OC)C2)CC(=O)[C@H](C)/C=C(\C)[C@@H](O)[C@@H](OC)C(=O)[C@H](C)C[C@H](C)/C=C/C=C/C=C/1C [rapamycin]
- donor mtDNA in the recipient T cells (mouse NZB T cells; centrifugation and two days of rapamycin treatment (100-1000 nM), FIG. 5A): 45-80%
- donor mtDNA in the recipient T cells (mouse NZB T cells; day 7, rapamycin 100-1000 nM, FIG. 5B): 70-90%
- portion of donor mtDNA detected in T cells (human GJ T cells; 50 nM rapamycin): less than 40%
- portion of donor mtDNA detected in T cells (human GJ T cells; 500 nM rapamycin): approximately 50%
- mtDNA content in T cells consisting of mtDNA from EPC100 cells (human GJ T cells; human GJ T cells contacted with EPC100 donor mitochondria in the presence of rapamycin (50 to 500 nM), no mtDNA depletion, FIG. 3B): 40-50%
